{
  "source": "patent US20030216458A1",
  "about": "“Combination therapy for the treatment of migraine” (priority 1999, published 2003)",
  "origin": "cited, not measured here",
  "details": "anaesthetized dog",
  "data": [
    {"compound": "CNS(=O)(=O)Cc1ccc2[nH]cc(CCN(C)C)c2c1", "note": "[Sumatriptan]", "values": [
      {"measurement": "effect on carotid vascular resistance", "result": "selective increase in carotid vascular resistance"}
    ]}
  ]
}
